From ChEMBL document CHEMBL1201862, “PubChem BioAssay data set” (2004)
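Growth conditions: 96-well plates. Treatment: test compound, 48 hours, 5 concentrations. Analysis: linear interpolation between bracketing concentrations; unreached endpoints set to highest concentration. GI50: concentration for 50% inhibition of growth.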 Activity calls are given as the source filed them. Rule as the data show it: active = GI50 up to about 1.1 µM and inactive = higher.

How the values were obtained:
Test in all cases: NCI tumour cell line growth inhibition, 48 h
MOLT-4 = test system: MOLT-4
TK-10 = test system: TK-10
M19-MEL = test system: M19-MEL
RPMI-8226 = test system: RPMI-8226
A498 = test system: A498
UACC-62 = test system: UACC-62
CAKI-1 = test system: CAKI-1
SNB-75 = test system: SNB-75
HCT-15 = test system: HCT-15
KM12 = test system: KM12
K562 = test system: K562
LOX IMVI = test system: LOX IMVI
A549 = test system: A549
SNB-19 = test system: SNB-19
SK-MEL-2 = test system: SK-MEL-2
DMS-114 = test system: DMS-114
OVCAR-5 = test system: OVCAR-5
OVCAR-3 = test system: OVCAR-3
SK-OV-3 = test system: SK-OV-3
HOP-18 = test system: HOP-18
NCI-H460 = test system: NCI-H460
NCI-H226 = test system: NCI-H226
KM-20L2 = test system: KM-20L2
UACC-257 = test system: UACC-257
ACHN = test system: ACHN
UO-31 = test system: UO-31
M14 = test system: M14
OVCAR-8 = test system: OVCAR-8
SN12C = test system: SN12C
U-251 = test system: U-251
DLD-1 = test system: DLD-1
COLO 205 = test system: COLO 205
SK-MEL-5 = test system: SK-MEL-5
HCC 2998 = test system: HCC 2998
IGROV-1 = test system: IGROV-1
SF-295 = test system: SF-295
LXFL 529 = test system: LXFL 529
NCI-H23 = test system: NCI-H23
HCT-116 = test system: HCT-116
DMS-273 = test system: DMS-273
HOP-92 = test system: HOP-92
OVCAR-4 = test system: OVCAR-4
SK-MEL-28 = test system: SK-MEL-28
SW-620 = test system: SW-620
786-0 = test system: 786-0
HL-60 = test system: HL-60
SNB-78 = test system: SNB-78
SF-268 = test system: SF-268
EKVX = test system: EKVX
SF-539 = test system: SF-539
CCRF-CEM = test system: CCRF-CEM
NCI-H522 = test system: NCI-H522
Malme-3M = test system: Malme-3M
HOP-62 = test system: HOP-62
HT-29 = test system: HT-29
SR = test system: SR
RXF 393 = test system: RXF 393

Measured: GI50

NCC(NC(=O)OCc1ccccc1)C(=O)O (stereo not given)
> 50 µM: HCT-15
inactive: MOLT-4 > 50 µM | TK-10 > 50 µM | M19-MEL > 50 µM | RPMI-8226 > 50 µM | A498 > 50 µM | UACC-62 > 50 µM | CAKI-1 > 50 µM | SNB-75 > 50 µM | KM12 > 50 µM | K562 > 50 µM | LOX IMVI > 50 µM | A549 > 50 µM | SNB-19 > 50 µM | SK-MEL-2 > 50 µM | DMS-114 > 50 µM | OVCAR-5 > 50 µM | OVCAR-3 > 50 µM | SK-OV-3 > 50 µM | HOP-18 > 50 µM | NCI-H460 > 50 µM | NCI-H226 > 50 µM | KM-20L2 > 50 µM | UACC-257 > 50 µM | ACHN > 50 µM | UO-31 > 50 µM | M14 > 50 µM | OVCAR-8 > 50 µM | SN12C > 50 µM | U-251 > 50 µM | DLD-1 > 50 µM | COLO 205 > 50 µM | SK-MEL-5 > 50 µM | HCC 2998 > 50 µM | IGROV-1 > 50 µM | SF-295 > 50 µM | LXFL 529 > 50 µM | NCI-H23 > 50 µM | HCT-116 > 50 µM | DMS-273 > 50 µM | HOP-92 > 50 µM | OVCAR-4 > 50 µM | SK-MEL-28 > 50 µM | SW-620 > 50 µM | 786-0 > 50 µM | HL-60 > 50 µM | SNB-78 > 50 µM | SF-268 > 50 µM | EKVX > 50 µM | SF-539 > 50 µM | CCRF-CEM > 50 µM | NCI-H522 > 50 µM | Malme-3M > 50 µM | HOP-62 > 50 µM | HT-29 > 50 µM

O=C1C=C(c2[nH]c3ccccc3c2C2=CC(=O)c3ccccc3C2=O)C(=O)c2ccccc21
inactive: MOLT-4 15 µM | TK-10 94.4 µM | M19-MEL 17.3 µM | RPMI-8226 33 µM | A498 > 100 µM | UACC-62 24.9 µM | SNB-75 26 µM | KM12 36.1 µM | K562 22.3 µM | SR 20.6 µM | LOX IMVI 22.1 µM | A549 65.3 µM | SNB-19 70.1 µM | DMS-114 17.3 µM | OVCAR-5 > 100 µM | OVCAR-3 21.6 µM | SK-OV-3 54.1 µM | HOP-18 > 100 µM | NCI-H460 35.6 µM | NCI-H226 61.7 µM | ACHN 44.9 µM | UO-31 > 100 µM | M14 68.7 µM | OVCAR-8 43.8 µM | U-251 32.8 µM | DLD-1 57.1 µM | COLO 205 > 100 µM | SK-MEL-5 31.7 µM | IGROV-1 30.1 µM | SF-295 36.1 µM | LXFL 529 37.3 µM | NCI-H23 41.3 µM | RXF 393 39.7 µM | DMS-273 39.2 µM | OVCAR-4 33.7 µM | SK-MEL-28 57 µM | SW-620 66.5 µM | 786-0 > 100 µM | HL-60 21.8 µM | SNB-78 32.8 µM | SF-268 34.4 µM | EKVX 46.5 µM | SF-539 34.8 µM | CCRF-CEM 16.8 µM | HT-29 > 100 µM

CN1NC2(CCCCC2)ON=C1c1ccccc1
inactive: MOLT-4 > 100 µM | TK-10 > 100 µM | A498 > 100 µM | UACC-62 > 100 µM | CAKI-1 > 100 µM | SNB-75 > 100 µM | KM12 > 100 µM | K562 > 100 µM | SR > 100 µM | LOX IMVI > 100 µM | A549 > 100 µM | SNB-19 > 100 µM | DMS-114 > 100 µM | OVCAR-5 > 100 µM | OVCAR-3 > 100 µM | SK-OV-3 > 100 µM | HOP-18 > 100 µM | NCI-H460 > 100 µM | NCI-H226 > 100 µM | KM-20L2 > 100 µM | UACC-257 > 100 µM | ACHN > 100 µM | M14 > 100 µM | OVCAR-8 > 100 µM | SN12C > 100 µM | U-251 > 100 µM | DLD-1 > 100 µM | COLO 205 > 100 µM | SK-MEL-5 > 100 µM | IGROV-1 > 100 µM | SF-295 > 100 µM | NCI-H23 > 100 µM | RXF 393 > 100 µM | HCT-116 > 100 µM | HOP-92 > 100 µM | OVCAR-4 > 100 µM | SK-MEL-28 > 100 µM | SW-620 > 100 µM | 786-0 > 100 µM | HL-60 > 100 µM | SNB-78 > 100 µM | SF-268 > 100 µM | EKVX > 100 µM | SF-539 > 100 µM | CCRF-CEM > 100 µM | NCI-H522 > 100 µM | Malme-3M > 100 µM | HOP-62 > 100 µM | HT-29 > 100 µM
> 100 µM: HCT-15
